Read-outs that look alike come from different tables or passages of the source.
Tests used:
[1] = test system: M. abscessus; assay: Antimicrobial spectrum of activity; assay type: cell-based; settings: SI Table 1
[2] = Plasma pharmacokinetics after oral administration to female mice; assay type: in vivo, mouse
[3] = test system: M. smegmatis; assay: Antimicrobial spectrum of activity; assay type: cell-based; settings: relative to activity against Mtb; SI Table 1
[4] = test system: Salmonella typhimurium strain TA100; assay: Ames assay, plate incorporation method; assay type: cell-based
[5] = test system: L5178Y mouse lymphoma cells; assay: Mouse lymphoma cell tk+/−→tk−/− gene mutation; assay type: cell-based; settings: for Mutation frequency response in MOLY assay: in the presence or absence of metabolic activation (S9), non-cytotoxic dose levels
[6] = test system: Salmonella typhimurium strain TA98; assay: Ames assay, plate incorporation method; assay type: cell-based
[7] = test system: Mtb H37Rv; assay: TB MIC – SRI, resazurin-based microplate assay; assay type: cell-based, Mycobacterium tuberculosis; settings: lowest concentration inhibiting ≥90% growth
[8] = test system: Mtb H37Rv; assay: TB MIC – ITR; assay type: cell-based, Mycobacterium tuberculosis; settings: ITR laboratory
[9] = test system: Vero cells (Vero ATCC CCL-81); assay: Cytotoxicity against Vero cells; settings: 72 h incubation
[10] = test system: NRP Mtb H37Rv cells; assay: Low-oxygen recovery assay; assay type: cell-based, Mycobacterium tuberculosis; settings: non-replicating Mtb, anaerobic 10 d + 28-h recovery; ~90% inhibition
[11] = test system: L5178Y mouse lymphoma cells; settings: no reference printed at b52; cited from earlier work
[12] = in the presence and absence of metabolic activation (10% rat-liver S9)

Compound: CCNc1n[n+]([O-])c2ccccc2[n+]1[O-] [Compound 8a, 3-(ethylamino)benzo[e][1,2,4]triazine 1,4-dioxide]
- Antimicrobial activity against M. abscessus [1]: resistant
- Plasma drug concentration at the 24 hr time point ([2]; mouse, in vivo, po, 100 mg/kg): lower than the limit of quantitation
- Antimicrobial activity against M. smegmatis [3]: weaker activity

Compound: CCNc1n[n+]([O-])c2cc3c(cc2[n+]1[O-])CCC3 [Compound 15fa, 3-(ethylamino)-7,8-dihydro-6H-indeno[5,6-e][1,2,4]triazine 1,4-dioxide]
- Number of revertant colonies, strain TA100 [4]: dose-related increases in the number of revertant colonies
- Mutagenic potential, +S9, 4-Hr Exposure ([5]; dose 10 μg/mL): Positive
- Mutagenic potential, +S9, 24-Hr Exposure ([5]; dose 10 μg/mL): Positive
- Mutagenic potential, −S9, 4-Hr Exposure ([5]; dose 10 μg/mL): Positive
- Mutagenic potential, +S9, 4-Hr Exposure ([5]; dose 25 μg/mL): Positive
- Mutagenic potential, +S9, 24-Hr Exposure ([5]; dose 25 μg/mL): Positive
- Mutagenic potential, −S9, 4-Hr Exposure ([5]; dose 25 μg/mL): Positive
- Mutagenic potential, +S9, 4-Hr Exposure ([5]; dose 50 μg/mL): Positive
- Mutagenic potential, +S9, 24-Hr Exposure ([5]; dose 50 μg/mL): Positive
- Mutagenic potential, −S9, 4-Hr Exposure ([5]; dose 50 μg/mL): Positive
- Mutagenic potential, +S9, 4-Hr Exposure ([5]; dose 100 μg/mL): Positive
- Mutagenic potential, +S9, 24-Hr Exposure ([5]; dose 100 μg/mL): Positive
- Mutagenic potential, −S9, 4-Hr Exposure ([5]; dose 100 μg/mL): Positive
- Mutation frequency response in MOLY assay [5]: significant increase in mutation frequency
- Number of revertant colonies, strain TA98 [6]: dose-related increases in the number of revertant colonies

Compound: [O-][n+]1nc(N2CCCC2)[n+]([O-])c2cc3c(cc21)CCC3 [Compound 20q, 3-(pyrrolidin-1-yl)-7,8-dihydro-6H-indeno[5,6-e][1,2,4]triazine 1,4-dioxide]
- Antimicrobial activity against M. abscessus [1]: resistant
- Plasma drug concentration at the 24 hr time point ([2]; female mice, 100 mg/kg po, n = 3 per time point): lower than the limit of quantitation
- Number of revertant colonies, strain TA100 [4, 12]: dose-related increases in the number of revertant colonies
- Antimicrobial activity against M. smegmatis [3]: weaker activity
- Mutagenic activity in MOLY assay ([5]; at concentrations up to 100 μg/mL): no mutagenic activity
- Mutagenic potential, +S9, 4-Hr Exposure ([5]; dose 10 μg/mL): Negative
- Mutagenic potential, −S9, 4-Hr Exposure ([5]; dose 10 μg/mL): Negative
- Mutagenic potential, −S9, 24-Hr Exposure ([5]; dose 10 μg/mL): Negative
- Mutagenic potential, +S9, 4-Hr Exposure ([5]; dose 25 μg/mL): Negative ^a
- Mutagenic potential, +S9, 24-Hr Exposure ([5]; dose 25 μg/mL): Negative
- Mutagenic potential, −S9, 4-Hr Exposure ([5]; dose 25 μg/mL): Negative
- Mutagenic potential, −S9, 24-Hr Exposure ([5]; dose 25 μg/mL): Negative
- Mutagenic potential, +S9, 4-Hr Exposure ([5]; dose 50 μg/mL): Negative
- Mutagenic potential, +S9, 24-Hr Exposure ([5]; dose 50 μg/mL): Negative
- Mutagenic potential, −S9, 4-Hr Exposure ([5]; dose 50 μg/mL): Negative
- Mutagenic potential, −S9, 24-Hr Exposure ([5]; dose 50 μg/mL): Negative
- Mutagenic potential, +S9, 4-Hr Exposure ([5]; dose 100 μg/mL): Negative
- Mutagenic potential, +S9, 24-Hr Exposure ([5]; dose 100 μg/mL): Negative
- Mutagenic potential, −S9, 4-Hr Exposure ([5]; dose 100 μg/mL): Negative
- Mutagenic potential, −S9, 24-Hr Exposure ([5]; dose 100 μg/mL): Negative
- Mutation frequency response in MOLY assay [5]: negative response
- Number of revertant colonies, strain TA98 [6, 12]: dose-related increases in the number of revertant colonies

Compound: 7-fluoro-3-((1-methoxybutan-2-yl)amino)benzo[e][1,2,4]triazine 1,4-dioxide [Compound 15ai]
- TB MIC – SRI [7]: 5.0 µg/mL
- TB MIC – ITR [8]: 2.0 µg/mL
- Vero Tox CC50 [9]: 6.3 µg/mL
- LORA MIC – ITR [10]: 1.9 µg/mL

Compound: 3-((1-methoxybutan-2-yl)amino)benzo[e][1,2,4]triazine 1,4-dioxide [Compound 8i]
- TB MIC – SRI [7]: 10.0 µg/mL
- TB MIC – ITR [8]: 6.6 µg/mL
- Vero Tox CC50 [9]: >50 µg/mL
- LORA MIC – ITR [10]: 4.9 µg/mL

Compound: 7-chloro-3-((1-methoxybutan-2-yl)amino)benzo[e][1,2,4]triazine 1,4-dioxide [Compound 15bi]
- TB MIC – SRI [7]: 1.2 µg/mL

Compound: Nc1n[n+]([O-])c2ccccc2[n+]1[O-] [TPZ, tirapazamine]
- Mutagenicity in MOLY assay [11]: mutagenic
